Measured values: patent publication US20250169498A1, “SYNERGISTIC FUNGICIDAL INTERACTIONS OF A PICOLINAMIDE FUNGICIDE WITH OTHER FUNGICIDES AGAINST ASIAN SOYBEAN RUST” (CORTEVA AGRISCIENCE LLC, priority 2020, published 2025)

Assays:
[1] = system: Phakopsora pachyrhizi, PHAKPA; assay: 1-day protectant (1 DP) PHAKPA test on soybean seedlings; format: in vivo; settings: alone; for pest or weed control at 0.006 ppm: rate 0.006 ppm; for pest or weed control at 0.024 ppm: rate 0.024 ppm; for pest or weed control at 0.0015 ppm: rate 0.0015 ppm; for pest or weed control at 0.049 ppm: rate 0.049 ppm; for pest or weed control at 12.5 ppm: rate 12.5 ppm
Procedure: (§1) Fungicides were evaluated vs. PHAKPA either alone or in binary or ternary mixtures by combining each fungicide with Compound I. Technical grades of materials were dissolved in 1.5 ml of acetone, which were then mixed with 13.5 ml of water containing 0.011% Tween 20. The fungicide solutions were applied onto soybean seedlings using an automated booth sprayer to run-off. All sprayed plants were allowed to air dry prior to further handling. Soybean plants (variety Williams 82) were grown in soil-less Metro mix, with one plant per pot. Two weeks old seedlings were used for testing. Plants were inoculated either 3 days prior to or 1 day after fungicide treatments. Plants were incubated for 24 h in a dark dew room at 22° C. and 100% RH then transferred to a growth room at 23° C. for disease to develop. Once disease fully expressed on untreated plants, disease severity was assessed on the sprayed monofoliate leaves.
(§2) Synergy factors were calculated using Colby's method. The expected disease control (% DC exp) of a mixture consisting of two or three components can be predicted by the following formula: […]
(§3) where A, B, C are the percent disease control given by the individual fungicide component at the defined rate in the mixture. If the ratio (synergy factor) between the observed disease control of the mixture (% DCobs) and the expected disease control of the mixture (% DCexp) is greater than 1, synergistic interaction is present.
(§4) When disease fully developed on the control plants, infection levels were assessed on treated plants visually and scored on a scale of 0 to 100 percent. Percentage of disease control was then calculated using the ratio of disease on treated plants relative to control plants. […]

[2] = system: Phakopsora pachyrhizi, PHAKPA; assay: 3-day curative (3 DC) PHAKPA test on soybean seedlings; format: in vivo; settings: alone; for pest or weed control at 0.024 ppm: rate 0.024 ppm; for pest or weed control at 0.195 ppm: rate 0.195 ppm; for pest or weed control at 0.049 ppm: rate 0.049 ppm
Procedure: as §1, §2, §3, §4

[3] = Phakopsora pachyrhizi, read-out: % DC obs
[4] = Phakopsora pachyrhizi, rate 0.39 ppm, read-out: % DC obs
[5] = Phakopsora pachyrhizi, rate 0.195 ppm, read-out: % DC obs
[6] = Phakopsora pachyrhizi, rate 0.78 ppm, read-out: % DC obs
[7] = Phakopsora pachyrhizi, rate 3.125 ppm, read-out: % DC obs
[8] = Phakopsora pachyrhizi, rate 37.5 ppm, read-out: % DC obs
[9] = Phakopsora pachyrhizi, rate 75 ppm, read-out: % DC obs
[10] = Phakopsora pachyrhizi, rate 0.19 ppm, read-out: % DC obs
[11] = Phakopsora pachyrhizi, rate 200 ppm, read-out: % DC obs
[12] = Phakopsora pachyrhizi, rate 0.012 ppm, read-out: % DC obs

Molecule `Fc1ccc([C@]2(Cn3cncn3)O[C@H]2c2ccccc2Cl)cc1` (racemic) [Epoxiconazole, rel-1-[[(2R,3S)-3-(2-chlorophenyl)-2-(4-fluorophenyl)oxiranyl]methyl]-1H-1,2,4-triazole] has a pest or weed control at 0.006 ppm [1, 3] of 3.7%, a pest or weed control at 0.024 ppm [1, 3] of 48.1% and a pest or weed control at 0.024 ppm [2, 3] of 0%.

For `CO/C=C(/C(=O)OC)c1ccccc1Oc1cc(Oc2ccccc2C#N)ncn1` [Azoxystrobin, methyl (αE)-2-[[6-(2-cyanophenoxy)-4-pyrimidinyl]oxy]-α-(methoxymethylene)benzeneacetate], the pest or weed control at 0.024 ppm [1, 3] was 22.2%, the pest or weed control at 0.098 ppm ([1]; Phakopsora pachyrhizi, rate 0.098 ppm, read-out: % DC obs) was 50.4% and the pest or weed control at 0.39 ppm [2, 4] was 31.7%.

`Cn1cc(C(=O)Nc2cccc3c2C2CCC3C2=C(Cl)Cl)c(C(F)F)n1` (stereo not shown) [Benzovindiflupyr, N-[11-(dichloromethylidene)-3-tricyclo[6.2.1.0]undeca-2(7),3,5-trienyl]-3-(difluoromethyl)-1-methylpyrazole-4-carboxamide] was tested, and the “% DC obs” value ([1]; rate 0.195 ppm) was 3.7%, the “% DC obs” value ([1]; rate 0.78 ppm) was 11.1% and the “% DC obs” value ([1]; rate 3.125 ppm) was 80.0%. The “% DC obs” value ([2]; rate 0.78 ppm) was 11.7%.

`Cn1cc(C(=O)Nc2ccc(F)cc2-c2ccc(Cl)c(Cl)c2)c(C(F)F)n1` [Bixafen, N-(3′,4′-dichloro-5-fluoro[1,1′-biphenyl]-2-yl)-3-(difluoromethyl)-1-methyl-1H-pyrazole-4-carboxamide] was tested, and the pest or weed control at 0.195 ppm [1, 5] was 0%, the pest or weed control at 0.78 ppm [2, 6] was 0% and the pest or weed control at 3.125 ppm [2, 7] was 0%.

Molecule `N#Cc1c(Cl)c(Cl)c(Cl)c(C#N)c1Cl` [Chlorothalonil, tetrachlorisophthalonitrile] has a pest or weed control at 37.5 ppm [1, 8] of 0%, a pest or weed control at 75 ppm [1, 9] of 87% and a pest or weed control at 37.5 ppm [2, 8] of 4.6%. It also gave a pest or weed control at 75 ppm [2, 9] of 13.7% and a pest or weed control at 150 ppm ([2]; Phakopsora pachyrhizi, rate 150 ppm, read-out: % DC obs) of 18.3%.

Molecule `CCC(=O)Oc1c(OC)ccnc1C(=O)N[C@@H](C)C(=O)O[C@@H](C)[C@@H](C)c1ccccc1C` [Compound I] has a pest or weed control at 0.39 ppm [1, 4] of 79.2% and a pest or weed control at 1.56 ppm ([2]; Phakopsora pachyrhizi, rate 1.56 ppm, read-out: % DC obs) of 77.6%.

In the case of `[Cl-].[Cu+2].[Cu+2].[OH-].[OH-].[OH-]` [Cu Oxychloride], the “% DC obs” value ([2]; rate 200 ppm) is reported as 13.7%.

For `CC(C1CC1)C(O)(Cn1cncn1)c1ccc(Cl)cc1` (stereo not shown) [Cyproconazole, 2-(4-chlorophenyl)-3-cyclopropyl-1-(1,2,4-triazol-1-yl)butan-2-ol], the pest or weed control at 0.0015 ppm [1, 3] was 11.1%, the pest or weed control at 0.006 ppm [1, 3] was 3.7% and the pest or weed control at 0.024 ppm [1, 3] was 11.1%.

Work on `CC1COC(Cn2cncn2)(c2ccc(Oc3ccc(Cl)cc3)cc2Cl)O1` (stereo not shown) [Difenoconazole, 1-[[2-[2-chloro-4-(4-chlorophenoxy)phenyl]-4-methyl-1,3-dioxolan-2-yl]methyl]-1,2,4-triazole] yielded a pest or weed control at 0.19 ppm [1, 10] of 41.9% and a pest or weed control at 0.19 ppm [2, 10] of 18.3%.

With `CC(Cc1ccc(C(C)(C)C)cc1)CN1C[C@@H](C)O[C@@H](C)C1` (stereo partly drawn) [Fenpropimorph, (2S,6R)-4-[3-(4-tert-butylphenyl)-2-methylpropyl]-2,6-dimethylmorpholine] the pest or weed control at 100 ppm ([2]; Phakopsora pachyrhizi, rate 100 ppm, read-out: % DC obs) was 36.4% and the pest or weed control at 200 ppm [2, 11] was 61.9%.

With `Cn1cc(C(=O)Nc2ccccc2-c2cc(F)c(F)c(F)c2)c(C(F)F)n1` [Fluxapyroxad, 3-(difluoromethyl)-1-methyl-N-[2-(3,4,5-trifluorophenyl)phenyl]pyrazole-4-carboxamide] the pest or weed control at 0.195 ppm [1, 5] was 3.7%, the pest or weed control at 0.78 ppm [1, 6] was 11.1% and the pest or weed control at 3.125 ppm [1, 7] was 80%. The pest or weed control at 0.195 ppm [2, 3] was 0% and the pest or weed control at 3.125 ppm [2, 7] was 17.6%.

For `CC(O)(Cn1cncn1)c1ccc(Oc2ccc(Cl)cc2)cc1C(F)(F)F` (stereo not shown) [Mefentrifluconazole, 2-[4-(4-chlorophenoxy)-2-(trifluoromethyl)phenyl]-1-(1,2,4-triazol-1-yl)propan-2-ol], the pest or weed control at 0.049 ppm [1, 3] was 9.9%, the pest or weed control at 0.195 ppm [1, 5] was 87% and the pest or weed control at 0.049 ppm [2, 3] was 43.7%. The pest or weed control at 0.195 ppm [2, 3] was 69.1%.

In the case of `CNC(=O)/C(=N/OC)c1ccccc1Oc1ccccc1` [Metominostrobin, (2E)-2-methoxyimino-N-methyl-2-(2-phenoxyphenyl)acetamide], the pest or weed control at 0.78 ppm [1, 6] is reported as 0%, the pest or weed control at 3.125 ppm [1, 7] is reported as 11.1% and the pest or weed control at 12.5 ppm [1, 3] is reported as 64.4%. The pest or weed control at 0.78 ppm [2, 6] was 33.3% and the pest or weed control at 3.125 ppm [2, 7] was 67.6%.

For `CO/C=C(/C(=O)OC)c1ccccc1COc1cccc(C(F)(F)F)n1` [Picoxystrobin, methyl (E)-3-methoxy-2-[2-[[6-(trifluoromethyl)pyridin-2-yl]oxymethyl]phenyl]prop-2-enoate], the pest or weed control at 0.195 ppm [1, 5] was 0%, the pest or weed control at 0.78 ppm [1, 6] was 80% and the “% DC obs” value ([1]; rate 0.195 ppm) was 0%. For the same molecule, the “% DC obs” value ([1]; rate 0.78 ppm) was 80%, the pest or weed control at 0.049 ppm [2, 3] was 18.5% and the pest or weed control at 0.195 ppm [2, 3] was 14.8%. For the same molecule, the pest or weed control at 0.78 ppm [2, 6] was 53.3%.

Work on `CCCC1COC(Cn2cncn2)(c2ccc(Cl)cc2Cl)O1` (stereo not shown) [Propiconazole, 1-[[2-(2,4-dichlorophenyl)-4-propyl-1,3-dioxolan-2-yl]methyl]-1,2,4-triazole] yielded a pest or weed control at 0.195 ppm [1, 5] of 19.9%, a pest or weed control at 0.78 ppm [1, 6] of 78% and a pest or weed control at 0.049 ppm [2, 3] of 9.2%. It also gave a pest or weed control at 0.195 ppm [2, 3] of 59.1%.

`OC(Cc1ccccc1Cl)(Cn1[nH]cnc1=S)C1(Cl)CC1` (stereo not shown) [Prothioconazole, 2-[2-(1-chlorocyclopropyl)-3-(2-chlorophenyl)-2-hydroxypropyl]-1,2-dihydro-3H-1,2,4-triazole-3-thione] showed a pest or weed control at 0.0015 ppm [1, 3] of 0% and a pest or weed control at 0.006 ppm [1, 3] of 7.4%.

Work on `CON(C(=O)c1cn(C)nc1C(F)F)C(C)Cc1c(Cl)cc(Cl)cc1Cl` (stereo not shown) [Pydiflumetofen, 3-(difluoromethyl)-N-methoxy-1-methyl-N-[1-(2,4,6-trichlorophenyl)propan-2-yl]pyrazole-4-carboxamide] yielded a pest or weed control at 12.5 ppm [1, 3] of 0%, a pest or weed control at 50 ppm ([1]; Phakopsora pachyrhizi, rate 50 ppm, read-out: % DC obs) of 15.3% and a pest or weed control at 200 ppm [1, 11] of 85.4%.

`CC(C)(C)C(O)(CCc1ccc(Cl)cc1)Cn1cncn1` (stereo not shown) [Tebuconazole, 1-(4-chlorophenyl)-4,4-dimethyl-3-(1,2,4-triazol-1-ylmethyl)pentan-3-ol] gave a pest or weed control at 0.0015 ppm [1, 3] of 0%, a pest or weed control at 0.006 ppm [1, 3] of 11.1% and a pest or weed control at 0.0015 ppm ([2]; Phakopsora pachyrhizi, rate 0.0015 ppm, read-out: % DC obs) of 0%. For the same molecule, the pest or weed control at 0.006 ppm ([2]; Phakopsora pachyrhizi, rate 0.006 ppm, read-out: % DC obs) was 0% and the pest or weed control at 0.024 ppm [2, 3] was 11.7%.

`FC(F)C(F)(F)OCC(Cn1cncn1)c1ccc(Cl)cc1Cl` (stereo not shown) [Tetraconazole, 1-[2-(2,4-dichlorophenyl)-3-(1,1,2,2-tetrafluoroethoxy)propyl]-1,2,4-triazole] gave a pest or weed control at 0.012 ppm [1, 12] of 0%, a pest or weed control at 0.049 ppm [1, 3] of 0% and a pest or weed control at 0.195 ppm [1, 5] of 90%. It also gave a pest or weed control at 0.012 ppm [2, 12] of 13.7% and a pest or weed control at 0.049 ppm [2, 3] of 13.7%.

`CO/N=C(/C(=O)OC)c1ccccc1CO/N=C(\C)c1cccc(C(F)(F)F)c1` [Trifloxystrobin, methyl (2E)-2-methoxyimino-2-[2-[[(E)-1-[3-(trifluoromethyl)phenyl]ethylideneamino]oxymethyl]phenyl]acetate] showed a pest or weed control at 0.195 ppm [2, 3] of 18.3%.

“zinc manganese(2+)N-[2-(sulfidocarbothioylamino)ethyl]carbamodithioate [Mancozeb]” was tested, and the “% DC obs” value ([1]; rate 0.19 ppm) was 3.8%, the “% DC obs” value ([1]; rate 0.78 ppm) was 0% and the “% DC obs” value ([1]; rate 3.125 ppm) was 0%. For the same molecule, the “% DC obs” value ([2]; rate 0.19 ppm) was 14.8%, the “% DC obs” value ([2]; rate 0.78 ppm) was 14.8% and the “% DC obs” value ([2]; rate 3.125 ppm) was 0%. The “% DC obs” value ([2]; rate not given) was 0%.
